Experimental data taken from patent US9993457B2, “Method of improving visual processing, visual acuity, or both by administering compositions comprising RRR-alpha-tocopherol and carotenoid to infants” (ABBOTT LABORATORIES, priority 2014, dated 2018).
Like-named read-outs stand apart in the source and are kept apart here.

How the values were obtained:
[1] = in vivo
Excerpt: In Example 1, the brain tissues of infants were sampled to measure the concentration of total alpha-tocopherol and RRR-alpha-tocopherol.
Subjects were infants (n=25) who died during the first year of life from either SIDS or other conditions. Brain tissues (occipital cortex, OC {n=17}; frontal cortex, FC {n−17}; and hippocampus, HPC {n=19}) from the NICHD Brain and Tissue Bank were processed using standard lipid extraction procedures and analyzed using chiral reverse phase HPLC. Data are presented as concentrations (μg/g tissue) of total alpha-tocopherol or RRR-alpha-tocopherol in the brain tissue.
The mean concentration in each region is denoted by a horizontal bar. […] In addition, total alpha-tocopherol was analyzed by age (in days) in the frontal cortex (graph B), hippocampus (graph C), and occipital cortex (graph D). […] RRR-alpha-tocopherol concentrations were also measured in the frontal cortex (graph E), hippocampus (graph F), and occipital cortex (graph G) of human infant brain tissues and reported as a function of age.

[2] = cited from earlier work

| SMILES | change of total alpha-tocopherol concentration with age [1] | biological activity relative to all-rac-alpha-tocopherol ([2]; accepted nutritional guidelines) | biological activity relative to all-rac-alpha-tocopherol ([2]; recent studies) | correlation between age and mean concentration [1] | stereoisomer predominance compared to all non-RRR-alpha-tocopherol stereoisomers [1] |
| --- | --- | --- | --- | --- | --- |
| Cc1c(C)c2c(c(C)c1O)CC[C@@](C)(CCC[C@H](C)CCC[C@H](C)CCCC(C)C)O2 [alpha-tocopherol] | increased with age | – | – | – | – |
| Cc1c(C)c2c(c(C)c1O)CC[C@@](C)(CCC[C@H](C)CCC[C@H](C)CCCC(C)C)O2 [RRR-alpha-tocopherol] | – | 1.36 times | about 2 times | strong correlation | predominant stereoisomer |
